Measured values reported in EP1211260A1, “Peptides from Ag85 of mycobacterium and uses thereof” (priority 2000, dated 2002).
Where two headings read alike, the source gives them in different places. Where a SMILES comes first, the peptide text is derived from it.

Biological target: Recombinant HLA-A*201 (Homo sapiens, UniProt P04439, D140Y/D185E/D98H/E176V/E277Q/G131W/G231S/I119V/I121R/I166T/I218V/L300P/L318F/N151K/N90K/P208A/P217A/Q86G/Q94H/R138H/R169H/T345S)
Assay: biochemical
Type: binding
[1] = 20°C, 48 h, standard peptide HBV core 47-56 (52->C), read-out: HLA-A2 Binding Affinity(IC50; µM)

SMILES	IC50	IC50 [1]
CC[C@H](C)[C@H](NC(=O)[C@H](CCSC)NC(=O)[C@H](C)NC(=O)[C@H](CO)NC(=O)[C@H](CO)NC(=O)CNC(=O)[C@H](C)NC(=O)[C@H](CCSC)NC(=O)[C@@H](N)CO)C(=O)O [126-134] (H-SMAGSSAMI-OH)	1.7 µM	
CC(C)C[C@H](NC(=O)[C@H](CCCNC(=N)N)NC(=O)[C@@H](NC(=O)[C@H](CC(N)=O)NC(=O)[C@H](CC(N)=O)NC(=O)[C@H](C)NC(=O)[C@@H](NC(=O)[C@H](CC(C)C)NC(=O)[C@@H](N)CCCCN)C(C)C)[C@@H](C)O)C(=O)O [199-207] (H-KLVANNTRL-OH)	1.4 µM	
CC(C)C[C@H](NC(=O)[C@@H](N)CCCNC(=N)N)C(=O)N[C@@H](Cc1c[nH]c2ccccc12)C(=O)N[C@H](C(=O)N[C@@H](Cc1ccc(O)cc1)C(=O)N[C@@H](CS)C(=O)NCC(=O)N[C@@H](CC(N)=O)C(=O)NCC(=O)N[C@H](C(=O)O)[C@@H](C)O)C(C)C [206-215] (H-RLWVYCGNGT-OH)		2 µM
CC(C)C[C@H](NC(=O)[C@H](Cc1c[nH]c2ccccc12)NC(=O)[C@H](CCC(N)=O)NC(=O)[C@@H]1CCCN1C(=O)[C@H](CC(C)C)NC(=O)[C@H](CCC(=O)O)NC(=O)[C@H](CO)NC(=O)[C@@H](NC(=O)[C@@H](N)CC(C)C)[C@@H](C)O)C(=O)O [101-109] (H-LTSELPQWL-OH)		6 µM
CC(C)C[C@H](NC(=O)[C@H](Cc1ccc(O)cc1)NC(=O)[C@H](CCC(=O)O)NC(=O)[C@@H](NC(=O)[C@@H]1CCCN1C(=O)[C@H](CC(C)C)NC(=O)CN)C(C)C)C(=O)N[C@@H](CCC(N)=O)C(=O)N[C@H](C(=O)O)C(C)C [5-13] (H-GLPVEYLQV-OH)		7 µM
CC[C@H](C)[C@H](NC(=O)[C@H](CO)NC(=O)[C@H](CC(C)C)NC(=O)CN)C(=O)N[C@H](C(=O)N[C@@H](CCSC)C(=O)N1CCC[C@H]1C(=O)N[C@H](C(=O)O)C(C)C)C(C)C [65-72] (H-GLSIVMPV-OH)		0.3 µM
CC(C)C[C@H](NC(=O)[C@H](Cc1c[nH]c2ccccc12)NC(=O)[C@H](CCC(N)=O)NC(=O)[C@@H]1CCCN1C(=O)[C@H](CC(C)C)NC(=O)[C@H](CCC(=O)O)NC(=O)[C@H](CO)NC(=O)[C@@H](NC(=O)[C@H](CC(C)C)NC(=O)[C@@H](N)Cc1ccccc1)[C@@H](C)O)C(=O)O [100-109] (H-FLTSELPQWL-OH)		0.7 µM
CC[C@H](C)[C@H](NC(=O)[C@H](CCSC)NC(=O)[C@H](C)NC(=O)[C@H](CO)NC(=O)[C@H](CO)NC(=O)CNC(=O)[C@H](C)NC(=O)[C@H](CCSC)NC(=O)[C@@H](N)CO)C(=O)N[C@@H](CC(C)C)C(=O)O [126-135] (H-SMAGSSAMIL-OH)		0.5 µM
CC(C)C[C@H](NC(=O)[C@H](CCCNC(=N)N)NC(=O)[C@@H](NC(=O)[C@H](CC(N)=O)NC(=O)[C@H](CC(N)=O)NC(=O)[C@H](C)NC(=O)[C@@H](NC(=O)[C@H](CC(C)C)NC(=O)[C@@H](N)CCCCN)C(C)C)[C@@H](C)O)C(=O)N[C@@H](Cc1c[nH]c2ccccc12)C(=O)N[C@H](C(=O)O)C(C)C [199-209] (H-KLVANNTRLWV-OH)		0.6 µM
CC(C)C[C@H](NC(=O)[C@H](CC(N)=O)NC(=O)[C@H](CO)NC(=O)[C@H](CO)NC(=O)[C@H](CCCNC(=N)N)NC(=O)[C@@H](NC(=O)[C@H](Cc1ccccc1)NC(=O)[C@H](CC(N)=O)NC(=O)[C@H](CCC(=O)O)NC(=O)[C@H](CC(C)C)NC(=O)[C@@H](N)Cc1ccccc1)C(C)C)C(=O)O [228-238] (H-FLENFVRSSNL-OH)		1.2 µM
CC[C@H](C)[C@H](NC(=O)[C@@H](N)Cc1ccccc1)C(=O)N[C@@H](Cc1ccc(O)cc1)C(=O)N[C@@H](C)C(=O)NCC(=O)N[C@@H](CO)C(=O)N[C@@H](CC(C)C)C(=O)N[C@@H](CO)C(=O)N[C@@H](C)C(=O)N[C@@H](CC(C)C)C(=O)O [143-152, FIYAGSLSAL] (H-FIYAGSLSAL-OH)		0.01 µM
CC[C@H](C)[C@H](NC(=O)[C@H](CC(C)C)NC(=O)[C@H](CO)NC(=O)[C@@H]1CCCN1C(=O)CNC(=O)[C@H](CCSC)NC(=O)CN)C(=O)NCC(=O)N[C@@H](CC(C)C)C(=O)O [158-166] (H-GMGPSLIGL-OH)		1.4 µM
CC[C@H](C)[C@H](NC(=O)[C@@H](N)Cc1ccccc1)C(=O)N[C@@H](Cc1ccc(O)cc1)C(=O)N[C@@H](C)C(=O)NCC(=O)N[C@@H](CO)C(=O)N[C@@H](CC(C)C)C(=O)N[C@@H](CO)C(=O)N[C@@H](C)C(=O)O [143-151] (H-FIYAGSLSA-OH)		0.4 µM
CC(C)C[C@H](NC(=O)CNC(=O)[C@H](CC(=O)O)NC(=O)[C@H](CC(C)C)NC(=O)[C@H](CC(C)C)NC(=O)[C@@H](N)Cc1ccc(O)cc1)C(=O)N[C@@H](CCCNC(=N)N)C(=O)N[C@@H](C)C(=O)O [37-44] (H-YLLDGLRA-OH)		1.6 µM
